Non-standard residues stand in square brackets, D forms with d. Residues, ends and D or L forms follow the SMILES beside them. *: point of attachment. pNA = O=[N+]([O-])c1ccc(N*)cc1; X1 = COC(=O)CC(=O)*; Ms = CS(=O)(=O)*
Target: Factor Xa (Homo sapiens, UniProt P00742)
Test: Activity towards Factor Xa: hydrolysis rate by variation in optical density with time (ΔOD/min)
Format: biochemical
Details: hydrolysis rate (ΔOD/min) at equimolar doses; activity of reference product CP 1 specified as 100%
Method: The activity of the peptides according to the invention towards Factor Xa was determined by one of the conventional methods, such as the one described in EP-A-0 280 160 (see page 14), the hydrolysis rate being assessed by the variation in optical density with time (ΔOD/min). The results obtained at equimolar doses have been collated in Table III below, where the activity of the reference product CP 1 is specified as being equal to 100% for the sake of convenience.

Chain of Factor Xa (P00742 235-488 limits assumed): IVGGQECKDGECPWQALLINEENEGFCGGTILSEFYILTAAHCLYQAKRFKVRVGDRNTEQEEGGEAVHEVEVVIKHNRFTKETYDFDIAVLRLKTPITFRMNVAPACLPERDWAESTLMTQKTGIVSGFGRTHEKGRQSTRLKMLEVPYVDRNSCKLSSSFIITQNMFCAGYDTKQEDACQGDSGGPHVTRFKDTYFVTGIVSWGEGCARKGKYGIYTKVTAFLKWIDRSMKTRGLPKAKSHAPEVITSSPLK
Chain of Factor Xa (P00742 41-179 partner limits assumed): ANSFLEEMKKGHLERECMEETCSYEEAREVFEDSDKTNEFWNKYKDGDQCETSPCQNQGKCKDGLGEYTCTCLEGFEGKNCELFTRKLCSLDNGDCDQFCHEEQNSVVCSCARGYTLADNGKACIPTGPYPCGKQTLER

Activity (activity towards Factor Xa) | SMILES
121% | CCCC[C@@H](NC(=O)OCCOCCOCCOC)C(=O)NCC(=O)N[C@@H](CCCNC(=N)N)C(=O)Nc1ccc([N+](=O)[O-])cc1 [Ex. 73]
115% | COC(=O)CC(=O)N[C@H](CC(C)C)C(=O)NCC(=O)N[C@@H](CCCNC(=N)N)C(=O)Nc1ccc([N+](=O)[O-])cc1 [Ex. 1, MM-D-Leu-Gly-L-Arg-pNA.AcOH]
103% | COCCOCCOCCOCCOCCOCCOCCOC(=O)N[C@H](CC(C)C)C(=O)NCC(=O)N[C@@H](CCCNC(=N)N)C(=O)Nc1ccc([N+](=O)[O-])cc1 [Ex. 64, Me-O(CH2 CH2 O)7 -CO-D-Leu-Gly-L-Arg-pNA.AcOH]
105% | CC[C@@H](C)[C@@H](NC(=O)CC(=O)OC)C(=O)N[C@@H](CCC(=O)OC)C(=O)NCC(=O)N[C@@H](CCCNC(=N)N)C(=O)Nc1ccc([N+](=O)[O-])cc1 [Ex. 33, MM-D-Ile-L-Glu(OMe)-Gly-L-Arg-pNA] (X1-[dI]E(OMe)GR-pNA)
145% | COCCOC(=O)N[C@H](CC(C)C)C(=O)NCC(=O)N[C@@H](CCCNC(=N)N)C(=O)Nc1ccc([N+](=O)[O-])cc1 [Ex. 61, Me-OCH2 CH2 O-CO-D-Leu-Gly-L-Arg-pNA.AcOH]
132% | CCOC(=O)CC(=O)N[C@H](CC(C)C)C(=O)NCC(=O)N[C@@H](CCCNC(=N)N)C(=O)Nc1ccc([N+](=O)[O-])cc1 [Ex. 2, EM-D-Leu-Gly-L-Arg-pNA]

The next lines start with the molecule.

SMILES | Activity (activity towards Factor Xa)
CCCC[C@@H](NC(=O)CC(=O)OC)C(=O)NCC(=O)N[C@@H](CCCNC(=N)N)C(=O)Nc1ccc([N+](=O)[O-])cc1 [Ex. 14, MM-D-Nle-Gly-L-Arg-pNA] | 140%
COCCOCCOC(=O)N[C@H](CC(C)C)C(=O)NCC(=O)N[C@@H](CCCNC(=N)N)C(=O)Nc1ccc([N+](=O)[O-])cc1 [Ex. 62, Me-O(CH2 CH2 O)2 -CO-D-Leu-Gly-L-Arg-pNA.AcOH] | 105%
CCCCOCCOCCOCCOCCOCCOCCOCCOC(=O)N[C@H](CCCC)C(=O)NCC(=O)N[C@@H](CCCNC(=N)N)C(=O)Nc1ccc([N+](=O)[O-])cc1 [Ex. 101] | 124%
CC(C)C[C@@H](NS(C)(=O)=O)C(=O)NCC(=O)N[C@@H](CCCNC(=N)N)C(=O)Nc1ccc([N+](=O)[O-])cc1 [CP 1, reference compound] (Ms-[dL]-Gly-Arg-pNA) | 100%
COCCOCCOCCOC(=O)N[C@H](CC(C)C)C(=O)NCC(=O)N[C@@H](CCCNC(=N)N)C(=O)Nc1ccc([N+](=O)[O-])cc1 [Ex. 63, MeO(CH2 CH2 O)3 -CO-D-Leu-Gly-L-Arg-pNA] | 110%

From patent publication US6121239A, “Peptide substrates for the identification of factor Xa” (Serbio, priority 1990, dated 2000)
